Results as given in article PMC3434693 (Drug and chemical toxicology, 2012).

Test system: C. elegans N2 Bristol strain
Test: C. elegans fecundity assay
Format: in vivo, Caenorhabditis elegans
Details: estimated concentration threshold, refined threshold-exposure stage; 6–7 days

ECT (C. elegans): 470 to 490 µM
Structure (SMILES): Cn1c(C(=O)NCCCc2c[nH]c(N)n2)cc(Br)c1Br [DHS, dihydrosventrin]
